Assay: excess molar enthalpy (molar enthalpy of mixing); xn = mol fraction of the nth substance listed
Settings: 100 kPa

SMILES: C1CCOCC1 + CCCCO
- excess molar enthalpy (283.15 K, x1 = 0.04): 0.118 kJ/mol
- excess molar enthalpy (283.15 K, x1 = 0.09): 0.24 kJ/mol
- excess molar enthalpy (283.15 K, x1 = 0.188): 0.452 kJ/mol
- excess molar enthalpy (283.15 K, x1 = 0.288): 0.627 kJ/mol
- excess molar enthalpy (283.15 K, x1 = 0.39): 0.761 kJ/mol
- excess molar enthalpy (283.15 K, x1 = 0.49): 0.833 kJ/mol
- excess molar enthalpy (283.15 K, x1 = 0.593): 0.852 kJ/mol
- excess molar enthalpy (283.15 K, x1 = 0.694): 0.802 kJ/mol
- excess molar enthalpy (283.15 K, x1 = 0.796): 0.664 kJ/mol
- excess molar enthalpy (283.15 K, x1 = 0.901): 0.403 kJ/mol
- excess molar enthalpy (283.15 K, x1 = 0.952): 0.221 kJ/mol
- excess molar enthalpy (298.15 K, x1 = 0.04): 0.125 kJ/mol
- excess molar enthalpy (298.15 K, x1 = 0.09): 0.257 kJ/mol
- excess molar enthalpy (298.15 K, x1 = 0.288): 0.691 kJ/mol
- excess molar enthalpy (298.15 K, x1 = 0.39): 0.841 kJ/mol
- excess molar enthalpy (298.15 K, x1 = 0.593): 0.931 kJ/mol
- excess molar enthalpy (298.15 K, x1 = 0.796): 0.698 kJ/mol
- excess molar enthalpy (298.15 K, x1 = 0.901): 0.412 kJ/mol
- excess molar enthalpy (298.15 K, x1 = 0.952): 0.222 kJ/mol
- excess molar enthalpy (313.15 K, x1 = 0.04): 0.119 kJ/mol
- excess molar enthalpy (313.15 K, x1 = 0.09): 0.258 kJ/mol
- excess molar enthalpy (313.15 K, x1 = 0.188): 0.517 kJ/mol
- excess molar enthalpy (313.15 K, x1 = 0.288): 0.736 kJ/mol
- excess molar enthalpy (313.15 K, x1 = 0.39): 0.899 kJ/mol
- excess molar enthalpy (313.15 K, x1 = 0.49): 0.981 kJ/mol
- excess molar enthalpy (313.15 K, x1 = 0.694): 0.912 kJ/mol
- excess molar enthalpy (313.15 K, x1 = 0.796): 0.716 kJ/mol
- excess molar enthalpy (313.15 K, x1 = 0.901): 0.408 kJ/mol
- excess molar enthalpy (313.15 K, x1 = 0.952): 0.216 kJ/mol

— a compilation of properties of binary mixtures (doi:10.1021/je0498457)
